{
  "source": "patent US20250282871A1",
  "about": "“PHARMACEUTICAL COMBINATION AND USE THEREOF” (TIANJIN LIPOGEN TECHNOLOGY CO., LTD, priority 2021, published 2025)",
  "key": {"[1]": {"test_system": "colorectal carcinoma MC38", "assay": "Example 7.2.2: MC38 subcutaneous xenograft, PD-L1 inhibitor Durvalumab and 2′,3′-cGAMP", "assay_type": "in vivo, mouse", "conditions": "intratumor injection, 1 mg/kg each, every other day, 3 times", "procedure": "(§1) Tumor cells were cultured and passaged, cells were collected at the logarithmic phase, and formulated into a concentration of (1.0×10^7) per milliliter of cell suspension with 0.1 ml (with a cell number of 1.0×10^6) being injected into the right flank of the mice, the tumor grew to a diameter of about 5 mm within about 10 days, and the model was successfully established, they were randomly divided into 8 groups with 8 mice per group.\n(§2) Trend of changes in body weight and tumor volume of mice, survival rate of mice, and inhibitory rate of anatomical tumor weight.\n(§3) Drug interaction coefficient: CDI(CI)=AB/A*B. AB is the ratio of the combination group of two drugs to the control group, as calculated based on the anatomical tumor weight. A or B is the ratio of single drug group to control group.\n(§4) After successfully establishing a subcutaneous xenograft tumor model of colorectal carcinoma MC38 in mice, they were randomly grouped with 6-8 mice per group and administered once every two days, a total of 3 times."}, "[2]": {"test_system": "colorectal carcinoma MC38", "assay": "Example 7.2.1: MC38 subcutaneous xenograft, marketed PD-1 inhibitors and 2′,3′-cGAMP", "assay_type": "in vivo, mouse", "conditions": "intratumor injection; PD-1 antibody 10 mg/kg, 2′,3′-cGAMP 1 mg/kg; every other day, 3 times", "procedure": "as §1, §2, §3, §4"}, "[3]": {"test_system": "colorectal carcinoma MC38", "assay": "Example 7.2.3: MC38 subcutaneous xenograft, PD-L1 inhibitor Tecentriq or RB0005 and 2′,3′-cGAMP", "assay_type": "in vivo, mouse", "conditions": "intratumor injection, 1 mg/kg each, every other day, 3 times", "procedure": "as §1, §2, §4"}, "[4]": {"test_system": "colorectal carcinoma MC38", "assay": "Example 1: subcutaneous xenograft tumor model of colorectal carcinoma MC38 in mice, RB0005 and 2′,3′-cGAMP", "assay_type": "in vivo, mouse", "procedure": "C57/BL6JNifdc mouse, female, body weight of 17-22 g, aged 6-8 weeks, SPF grade, purchased from Beijing Vital River Laboratory Animal Technology Co., Ltd. [Experimental Animal Quality Certificate No.: SCXK (Beijing) 2016-0006].\nas §1, §2, §3\nAfter successfully establishing a subcutaneous xenograft tumor model of colorectal carcinoma MC38 in mice, it was randomly grouped with 6-8 mice per group. The mice were administered once every two days, with a total of three times followed by observation until 15 days."}, "[5]": {"test_system": "colorectal carcinoma MC38", "assay": "Example 2: humanized PD-1 subcutaneous xenograft tumor model of colorectal carcinoma MC38, RB0004 and 2′,3′-cGAMP", "assay_type": "in vivo, mouse", "conditions": "2′,3′-cGAMP 3 mg/kg i.t.; RB0004 10 mg/kg i.p.; every other day", "procedure": "as §1, §2\nAfter successfully establishing a humanized PD-1 subcutaneous xenograft tumor model of colorectal carcinoma MC38 in mice, they were randomly grouped with 8 mice per group and administered once every two days."}, "[6]": {"test_system": "colorectal carcinoma MC38", "assay": "Example 3: xenograft tumor model of colorectal carcinoma MC38, RB0005 and different doses of 2′,3′-cGAMP", "assay_type": "in vivo, mouse", "conditions": "single drug i.t.: RB0005 1 mg/kg; 2′,3′-cGAMP 1, 3.16, 10 mg/kg", "procedure": "as §1, §2\nAfter successfully establishing a subcutaneous xenograft tumor model in mice, they were randomly grouped with 8 mice per group and administered once every two days."}, "[7]": {"test_system": "colorectal carcinoma MC38", "assay": "Example 5: humanized CD274 cell subcutaneous xenograft tumor model of colorectal carcinoma MC38, routes and dosage forms", "assay_type": "in vivo, mouse", "conditions": "every other day, 3 times", "procedure": "as §1, §2, §3\nAfter successfully establishing a humanized CD274 cell subcutaneous xenograft tumor model of colorectal carcinoma MC38 in mice, they were randomly grouped with 6-8 mice per group and administered once every two days, a total of 3 times."}, "[8]": {"test_system": "colorectal carcinoma MC38", "assay": "Example 6: humanized PD-1 subcutaneous xenograft tumor model of colorectal carcinoma MC38, RB0004 and 2′,3′-cGAMP single dosage form", "assay_type": "in vivo, mouse", "conditions": "intratumor injection; RB0004 10 mg/kg, 2′,3′-cGAMP 1 mg/kg; every other day, 3 times", "procedure": "as §1, §2, §3\n(§5) After successfully establishing a humanized PD-1 subcutaneous xenograft tumor model of colorectal carcinoma MC38 in mice, they were randomly grouped with 6-8 mice per group and administered once every two days, a total of 3 times."}, "[9]": {"test_system": "colorectal carcinoma MC38", "assay": "Example 9: MC38 xenograft, 2′,3′-cGAMP administered firstly, RB0005 after 48 hours", "assay_type": "in vivo, mouse", "conditions": "2′,3′-cGAMP 1 mg/kg i.t. Day 1, 3, 5; RB0005 1 mg/kg i.p. Day 3, 5, 7", "procedure": "as §1, §2, §3, §5"}, "breast carcinoma 4T1": {"test_system": "breast carcinoma 4T1", "assay": "Example 11: humanized CD274 cell subcutaneous xenograft tumor model of breast carcinoma 4T1 in BALBc mice", "assay_type": "in vivo", "conditions": "intratumor injection, 1 mg/kg each", "procedure": "as §1, §2, §3\nAfter successfully establishing a humanized CD274 cell subcutaneous xenograft tumor model of breast carcinoma 4T1 in BALBc mice, they were randomly grouped with 6-8 mice per group and administered once every two days, a total of 3 times."}, "melanoma B16": {"test_system": "melanoma B16", "assay": "Example 12: humanized PD-1 subcutaneous xenograft tumor model of melanoma B16", "assay_type": "in vivo, mouse", "conditions": "intratumor injection, RB0004 10 mg/kg, 2′,3′-cGAMP 0.1 mg/kg; for TGI %: day 7", "procedure": "as §1\nAfter successfully establishing a humanized PD-1 subcutaneous xenograft tumor model of melanoma B16 in mice, they were randomly grouped with 6-8 mice per group and administered once every two days, a total of 3 times."}, "lung carcinoma LLC-1": {"test_system": "lung carcinoma LLC-1", "assay": "Example 13: humanized PD-1 subcutaneous xenograft tumor model of lung carcinoma LLC-1", "assay_type": "in vivo, mouse", "conditions": "intratumor injection; RB0004 10 mg/kg, 2′,3′-cGAMP 0.1 mg/kg; every other day, 3 times", "procedure": "as §1, §3\nAfter successfully establishing a humanized PD-1 subcutaneous xenograft tumor model of lung carcinoma LLC-1 in mice, they were randomly grouped with 6-8 mice per group and administered once every two days, a total of 3 times."}},
  "data": [
    {"compound": "Durvalumab: marketed PD-L1 inhibitor, anti PD-L1 antibody", "values": [
      {"measurement": "IRTW % (tumor weight inhibitory rate)", "setting": "[1]", "result": 27.7, "unit": "%"},
      {"measurement": "Tumor Weight", "setting": "[1]", "result": 2.42, "unit": "g"}
    ]},
    {"compound": "Toripalimab: marketed PD-1 monoclonal antibody; G9 of Example 7.2.1, called TERRE in b443 [reference compound]", "values": [
      {"measurement": "IRTW % (tumor weight inhibitory rate)", "setting": "[2]", "result": 49.7, "unit": "%"},
      {"measurement": "Tumor Weight", "setting": "[2]", "result": 0.92, "unit": "g"}
    ]},
    {"compound": "Tecentriq: marketed PD-L1 inhibitor", "values": [
      {"measurement": "IRTW % (tumor weight inhibitory rate)", "setting": "[3]", "result": 62.4, "unit": "%"},
      {"measurement": "Tumor Weight", "setting": "[3]", "result": 0.7, "unit": "g"}
    ]},
    {"compound": "Nc1nc2c(ncn2[C@@H]2O[C@@H]3COP(=O)(O)O[C@H]4[C@@H](O)[C@H](n5cnc6c(N)ncnc65)O[C@@H]4COP(=O)(O)O[C@@H]2[C@@H]3O)c(=O)[nH]1", "note": "[2′,3′-cGAMP]", "values": [
      {"measurement": "inhibition of tumor growth", "setting": "[4]; i.t. 1 mg/kg, anatomical tumor weight vs negative control P<0.01, P<0.001", "result": "can significantly inhibit the growth of tumor"},
      {"measurement": "survival rates of mice at the endpoint of the experiment", "setting": "[4]; intratumor injection, 1 mg/kg each drug, every other day, 3 times, death = tumor volume >2000 mm^3", "result": 75, "unit": "%"},
      {"measurement": "inhibition of tumor growth", "setting": "[5]", "result": "can inhibit the growth of tumor"},
      {"measurement": "inhibition of tumor growth", "setting": "[6]", "result": "can inhibit the growth of tumor"},
      {"measurement": "Tumor Weight", "setting": "[7]; intraperitoneal injection, 1 mg/kg (each)", "result": 3.48, "unit": "g"},
      {"measurement": "Tumor Weight", "setting": "[7]; intratumor injection, 1 mg/kg each", "result": 1.84, "unit": "g"},
      {"measurement": "Tumor Weight", "setting": "[8]", "result": 0.84, "unit": "g"},
      {"measurement": "Tumor Weight", "setting": "[2]", "result": 0.98, "unit": "g"},
      {"measurement": "Tumor Weight", "setting": "[1]", "result": 1.74, "unit": "g"},
      {"measurement": "Tumor Weight", "setting": "[3]", "result": 0.9, "unit": "g"},
      {"measurement": "Tumor Weight", "setting": "[9]", "result": 1.30, "unit": "g"},
      {"measurement": "survival rate at the endpoint of the experiment", "setting": "breast carcinoma 4T1", "result": 66.7, "unit": "%"},
      {"measurement": "Tumor Weight", "setting": "breast carcinoma 4T1; every other day, 3 times", "result": 0.63, "unit": "g"},
      {"measurement": "Day 7-Tumor volume (mm^3)", "setting": "melanoma B16", "result": 578.8, "unit": "mm^3"},
      {"measurement": "TGI %", "setting": "melanoma B16", "result": 59.0, "unit": "%"},
      {"measurement": "TGI %", "setting": "melanoma B16; listed as cGAMP", "result": 59, "unit": "%"},
      {"measurement": "TGI %", "setting": "lung carcinoma LLC-1", "result": 47, "unit": "%"}
    ]},
    {"compound": "Sintilimab: marketed PD-1 monoclonal antibody [reference compound]", "values": [
      {"measurement": "IRTW % (tumor weight inhibitory rate)", "setting": "[2]", "result": 3.9, "unit": "%"},
      {"measurement": "Tumor Weight", "setting": "[2]", "result": 1.47, "unit": "g"}
    ]}
  ]
}
